In patent publication US7625841B2, “Substituted thiene-3-ylsulphonylamino(thio)carbonyltriazolin(ethi)ones” (Bayer CropScience AG, priority 2001, dated 2009):

Tests used:
Assay type in all cases: in vivo
weeds [1] = assay: Post-emergence test, summary for weeds
Protocol: (§1) • Solvent: 5 parts by weight of acetone • Emulsifier: 1 part by weight of alkylaryl polyglycol ether
(§2) To produce a suitable preparation of active compound, 1 part by weight of active compound is mixed with the stated amount of solvent, the stated amount of emulsifier is added and the concentrate is diluted with water to the desired concentration.
(§3) Test plants of a height of 5-15 cm are sprayed with the preparation of active compound such that the particular amounts of active compound desired are applied per unit area. The concentration of the spray liquor is chosen such that the particular amounts of active compound desired are applied in 1000 l of water/ha.
(§4) After three weeks, the degree of damage to the plants is rated in % damage in comparison to the development of the untreated control.
(§5) The figures denote: • 0%=no effect (like untreated control) • 100%=total destruction

Amaranthus = assay: Pre-emergence test/greenhouse; conditions: greenhouse, application rate 15 gai/ha, rated after three weeks, 0%=no effect, 100%=total destruction
Protocol: as §1
(§6) To produce a suitable preparation of active compound, 1 part by weight of active compound is mixed with the stated amount of solvent, the stated amount of emulsifier is added and the concetrate is diluted with water to the desired concentration.
(§7) Seeds of the test plants are sown in normal soil. After 24 hours, the soil is sprayed with the preparation of active compound such that the particular amount of active compound desired is applied per unit area. The concentration of active compound in the spray liquor is chosen such that the particular amount of active compound desired is applied in 1000 litres of water per hectare.
(§8) After three weeks, the degree of damage to the plants is rated in % damage in comparison to the development of the untreated control. The figures denote: • 0%=no effect (like untreated control) • 100%=total destruction

Lolium [2] = assay: Pre-emergence test/greenhouse; conditions: greenhouse, application rate 15 gai/ha, rated after three weeks, 0%=no effect, 100%=total destruction
Protocol: as §1, §6, §7, §8

Stellaria = assay: Pre-emergence test/greenhouse; conditions: greenhouse, application rate 15 gai/ha, rated after three weeks, 0%=no effect, 100%=total destruction
Protocol: as §1, §6, §7, §8

Matricaria = assay: Pre-emergence test/greenhouse; conditions: greenhouse, application rate 15 gai/ha, rated after three weeks, 0%=no effect, 100%=total destruction
Protocol: as §1, §6, §7, §8

Polygonum = assay: Pre-emergence test/greenhouse; conditions: greenhouse, application rate 15 gai/ha, rated after three weeks, 0%=no effect, 100%=total destruction
Protocol: as §1, §6, §7, §8

Avena fatua [3] = assay: Pre-emergence test/greenhouse; conditions: greenhouse, application rate 15 gai/ha, rated after three weeks, 0%=no effect, 100%=total destruction
Protocol: as §1, §6, §7, §8

Setaria [4] = assay: Pre-emergence test/greenhouse; conditions: greenhouse, application rate 15 gai/ha, rated after three weeks, 0%=no effect, 100%=total destruction
Protocol: as §1, §6, §7, §8

[5] = test system: crop plants such as, for example, maize, oilseed rape and wheat; assay: Post-emergence test, summary for crop plants
Protocol: as §1, §2, §3, §4, §5

Digitaria = assay: Post-emergence test/greenhouse; conditions: greenhouse, application rate 15 gai/ha, rated after three weeks, 0%=no effect, 100%=total destruction
Protocol: as §1, §2, §3, §4, §5

Bromus [6] = assay: Post-emergence test/greenhouse; conditions: greenhouse, application rate 15 gai/ha, rated after three weeks, 0%=no effect, 100%=total destruction
Protocol: as §1, §2, §3, §4, §5

Lolium [7] = assay: Post-emergence test/greenhouse; conditions: greenhouse, application rate 15 gai/ha, rated after three weeks, 0%=no effect, 100%=total destruction
Protocol: as §1, §2, §3, §4, §5

Echinochloa = assay: Post-emergence test/greenhouse; conditions: greenhouse, application rate 15 gai/ha, rated after three weeks, 0%=no effect, 100%=total destruction
Protocol: as §1, §2, §3, §4, §5

Avena fatua [8] = assay: Post-emergence test/greenhouse; conditions: greenhouse, application rate 15 gai/ha, rated after three weeks, 0%=no effect, 100%=total destruction
Protocol: as §1, §2, §3, §4, §5

Setaria [9] = assay: Post-emergence test/greenhouse; conditions: greenhouse, application rate 15 gai/ha, rated after three weeks, 0%=no effect, 100%=total destruction
Protocol: as §1, §2, §3, §4, §5

[10] = test system: crop plants, such as, for example, maize, soyabean and wheat; assay: Pre-emergence test, summary for crop plants
Protocol: as §1, §6, §7, §8

weeds [11] = assay: Pre-emergence test, summary for weeds
Protocol: as §1, §6, §7, §8

wheat = assay: Pre-emergence test/greenhouse; conditions: greenhouse, application rate 15 gai/ha, rated after three weeks, 0%=no effect, 100%=total destruction
Protocol: as §1, §6, §7, §8

Bromus [12] = assay: Pre-emergence test/greenhouse; conditions: greenhouse, application rate 15 gai/ha, rated after three weeks, 0%=no effect, 100%=total destruction
Protocol: as §1, §6, §7, §8

Xanthium = assay: Pre-emergence test/greenhouse; conditions: greenhouse, application rate 15 gai/ha, rated after three weeks, 0%=no effect, 100%=total destruction
Protocol: as §1, §6, §7, §8

maize = assay: Pre-emergence test/greenhouse; conditions: greenhouse, application rate 15 gai/ha, rated after three weeks, 0%=no effect, 100%=total destruction
Protocol: as §1, §6, §7, §8

Solanum = assay: Pre-emergence test/greenhouse; conditions: greenhouse, application rate 15 gai/ha, rated after three weeks, 0%=no effect, 100%=total destruction
Protocol: as §1, §6, §7, §8

Alopecurus [13] = assay: Pre-emergence test/greenhouse; conditions: greenhouse, application rate 15 gai/ha, rated after three weeks, 0%=no effect, 100%=total destruction
Protocol: as §1, §6, §7, §8

Alopecurus [14] = assay: Post-emergence test/greenhouse; conditions: greenhouse, application rate 15 gai/ha, rated after three weeks, 0%=no effect, 100%=total destruction
Protocol: as §1, §2, §3, §4, §5

Chenopodium = assay: Pre-emergence test/greenhouse; conditions: greenhouse, application rate 15 gai/ha, rated after three weeks, 0%=no effect, 100%=total destruction
Protocol: as §1, §6, §7, §8

soybeans = assay: Pre-emergence test/greenhouse; conditions: greenhouse, application rate 15 gai/ha, rated after three weeks, 0%=no effect, 100%=total destruction
Protocol: as §1, §6, §7, §8

Row | Structure (SMILES) | activity against weeds compared with the known compounds (A) and (B) (weeds [1]) | degree of damage to the plants, Amaranthus (Amaranthus) [%] | degree of damage to the plants, Lolium (Lolium [2]) [%] | degree of damage to the plants, Stellaria (Stellaria) [%] | degree of damage to the plants, Matricaria (Matricaria) [%] | degree of damage to the plants, Polygonum (Polygonum) [%] | degree of damage to the plants, Setaria (Setaria [4]) [%] | compatibility with crop plants compared with the known compounds (A) and (B) [5] | degree of damage to the plants, Digitaria (Digitaria) [%] | degree of damage to the plants, Bromus (Bromus [6]) [%] | degree of damage to the plants, Lolium (Lolium [7]) [%] | degree of damage to the plants, Echinochloa (Echinochloa) [%] | degree of damage to the plants, Avena fatua (Avena fatua [8]) [%] | degree of damage to the plants, Setaria (Setaria [9]) [%] | tolerance by crop plants [10] | activity against weeds compared with the known compounds (A) to (G) (weeds [11]) | degree of damage to the plants, wheat (wheat) [%] | degree of damage to the plants, maize (maize) [%] | degree of damage to the plants, Solanum (Solanum) [%] | degree of damage to the plants, Alopecurus (Alopecurus [13]) [%] | further results
1 | COCc1nn(C(=O)NS(=O)(=O)c2c(C(=O)OC)csc2C)c(=O)n1C1CC1 [Example 45] | considerably stronger activity against weeds | 100 | 100 | 100 | 100 | 95 | 100 | substantially better compatibility with crop plants | 100 | 90 | 95 | 100 | 90 | 90 | tolerated well by crop plants | considerably stronger activity against weeds | – | – | – | – | degree of damage to the plants, Avena fatua (Avena fatua [3]): 95%
2 | COC(=O)c1csc(C)c1S(=O)(=O)NC(=O)n1nc(OCC(F)(F)F)n(C2CC2)c1=O [Example 43] | – | 100 | 95 | 100 | 100 | 100 | 95 | – | – | – | – | – | – | – | tolerated well by crop plants | considerably stronger activity against weeds | – | – | – | – | –
3 | CCCc1nn(C(=O)NS(=O)(=O)c2c(C(=O)OC)csc2C)c(=O)n1C [Example 15] | considerably stronger activity against weeds | – | 95 | 100 | – | 90 | – | substantially better compatibility with crop plants | 100 | 80 | 80 | 90 | 90 | 90 | tolerated well by crop plants | considerably stronger activity against weeds | 0 | 0 | 95 | 100 | degree of damage to the plants, Bromus (Bromus [12]): 90%; degree of damage to the plants, Xanthium (Xanthium): 95%; degree of damage to the plants, Alopecurus (Alopecurus [14]): 95%
4 | COC(=O)c1csc(C)c1S(=O)(=O)NC(=O)n1nc(OCC(F)(F)F)n(C)c1=O [Example 41] | – | 100 | – | 100 | – | – | 95 | – | – | – | – | – | – | – | tolerated well by crop plants | considerably stronger activity against weeds | 0 | 0 | 100 | 100 | degree of damage to the plants, Chenopodium (Chenopodium): 100%
5 | COC(=O)c1csc(C)c1S(=O)(=O)NC(=O)n1nc(C)n(C2CC2)c1=O [Example 46] | considerably stronger activity against weeds | – | 90 | 100 | 100 | – | – | substantially better compatibility with crop plants | 90 | – | 95 | – | 80 | – | tolerated well by crop plants | considerably stronger activity against weeds | 50 | 0 | – | 95 | degree of damage to the plants, soybeans (soybeans): 0%; degree of damage to the plants, Alopecurus (Alopecurus [14]): 80%
